Usually IC50 stands for the concentration needed to halve the response being measured. A higher IC50 goes with a need for much substance. What is called Kd is the equilibrium constant for the complex coming apart.

The target of one assay is T1, Keap1 (Homo sapiens, UniProt Q14145).
T1 construct: GST-Keap1-DGR, residues 315–598 (DGR domain)
Kind of assay: FCS displacement of TAMRA-Nrf2 ETGE peptide from purified GST-Keap1-DGR; supported by co-IP. It counts as binding.

Assay [1] deals with Nrf2 8mer peptide (Homo sapiens). Kind of assay: SPR. The conditions noted are these: cited from earlier work.
Assay [2] concerns the target Nrf2 9mer peptide, FITC-labeled (Homo sapiens) (UniProt Q16236). Kind of assay: FP. The conditions noted are these: cited from earlier work.

A value given as a limit tells only on which side of the number the result lay.

Keap1 (from UniProt Q14145), sequence (Q14145 whole entry): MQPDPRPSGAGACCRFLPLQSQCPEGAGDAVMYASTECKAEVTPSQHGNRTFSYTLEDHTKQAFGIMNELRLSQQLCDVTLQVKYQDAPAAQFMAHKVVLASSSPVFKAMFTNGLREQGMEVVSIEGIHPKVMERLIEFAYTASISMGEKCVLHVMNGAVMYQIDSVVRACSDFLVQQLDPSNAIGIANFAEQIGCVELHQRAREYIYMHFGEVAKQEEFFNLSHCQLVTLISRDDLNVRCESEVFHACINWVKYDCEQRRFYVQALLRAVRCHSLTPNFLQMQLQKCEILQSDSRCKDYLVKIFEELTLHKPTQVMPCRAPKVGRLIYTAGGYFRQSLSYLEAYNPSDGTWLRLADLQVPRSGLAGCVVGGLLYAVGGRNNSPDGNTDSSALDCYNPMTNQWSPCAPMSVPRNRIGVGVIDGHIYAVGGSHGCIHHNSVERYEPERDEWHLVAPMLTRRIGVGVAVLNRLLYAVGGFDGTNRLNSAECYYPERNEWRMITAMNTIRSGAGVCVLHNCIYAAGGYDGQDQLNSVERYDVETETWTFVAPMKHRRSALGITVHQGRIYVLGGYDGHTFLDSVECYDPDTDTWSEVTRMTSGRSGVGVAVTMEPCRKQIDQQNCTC
T1 sequence (Q14145 315-598): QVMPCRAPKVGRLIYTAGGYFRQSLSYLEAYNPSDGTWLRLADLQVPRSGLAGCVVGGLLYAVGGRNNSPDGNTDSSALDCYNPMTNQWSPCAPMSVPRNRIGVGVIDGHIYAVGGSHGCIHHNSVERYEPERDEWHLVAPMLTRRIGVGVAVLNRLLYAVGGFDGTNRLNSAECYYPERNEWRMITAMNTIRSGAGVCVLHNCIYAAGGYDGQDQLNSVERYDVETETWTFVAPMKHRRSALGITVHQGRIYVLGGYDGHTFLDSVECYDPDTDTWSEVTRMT
Nrf2 9mer peptide, FITC-labeled (Homo sapiens), sequence (Q16236 whole entry): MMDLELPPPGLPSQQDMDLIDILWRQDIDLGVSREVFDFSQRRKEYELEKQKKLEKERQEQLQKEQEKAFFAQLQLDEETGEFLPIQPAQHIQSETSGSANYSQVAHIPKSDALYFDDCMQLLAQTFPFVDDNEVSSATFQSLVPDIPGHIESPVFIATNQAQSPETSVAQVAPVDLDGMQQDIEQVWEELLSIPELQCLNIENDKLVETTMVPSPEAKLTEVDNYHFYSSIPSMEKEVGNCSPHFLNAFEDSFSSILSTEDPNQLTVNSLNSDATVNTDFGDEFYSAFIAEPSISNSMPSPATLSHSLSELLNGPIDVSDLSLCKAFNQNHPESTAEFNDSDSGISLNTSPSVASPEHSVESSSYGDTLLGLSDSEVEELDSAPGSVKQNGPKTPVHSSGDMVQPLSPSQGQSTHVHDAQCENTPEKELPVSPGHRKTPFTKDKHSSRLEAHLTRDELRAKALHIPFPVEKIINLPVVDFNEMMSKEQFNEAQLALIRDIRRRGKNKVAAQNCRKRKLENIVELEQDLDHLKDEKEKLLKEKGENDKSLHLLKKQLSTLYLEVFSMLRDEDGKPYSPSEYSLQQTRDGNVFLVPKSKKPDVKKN

Compound `O=C1C=Cc2cc(Br)ccc2C1=O` [bonaphton, 6-bromo-1,2-naphthoquinone] had an IC50 at Keap1 of 37.9 µM.
Keap1 (from UniProt Q14145): the results for the Kd in assay [1] and in assay [2] were above 1000 nM and 65.1 nM, respectively.
With chlorophyllin sodium copper salt, the concentration for half-maximal inhibition (IC50) on Keap1 worked out at 35.7 µM.

(Values after publication PMC5479848, “Drug-Repositioning Screening for Keap1-Nrf2 Binding Inhibitors using Fluorescence Correlation Spectroscopy” (Scientific Reports, 2017).)
